Literature values as cited in patent US12151062B2, “Compositions and devices to administer pharmaceutical compositions nasally” (BOARD OF REGENTS, THE UNIVERSITY OF TEXAS SYSTEM, priority 2016, dated 2024).
Where two headings read alike, the source gives them in different places.

Legend:
[1] = for DTE relative to nasal solution alone: mucoadhesive microemulsion i.n.
[2] = thermosensitive gel i.n. compared to nasal solution in normal saline; rabbits
[3] = PLGA nanoparticles
[4] = system: P3 component of the event-related potentials; details: human subjects
[5] = not given; remark: listed apart in the source
[6] = not given; remark: listed apart in the source
[7] = thermoreversible gel with chitosan and glycerophosphate
brain tumor = details: mucoadhesive solution i.n.; rats pre-dosed with acetazolamide
[8] = mice
[9] = nasal administration with vasoconstrictor phenylephrine

Compound: Cc1nc2n(c(=O)c1CCN1CCC(c3noc4cc(F)ccc34)CC1)CCCC2O (stereo not drawn) [Paliperidone]
- brain AUCs compared to intravenous administration of the microemulsion ([1]; intranasal mucoadhesive microemulsion, rats): 2.43 times
- DTE ([1]; mucoadhesive microemulsion (polycarbophil) i.n., rats): 320.69%;
- DTE ([1]; mucoadhesive microemulsion (polycarbophil) i.n., rats, listed as paliperidone): 320.69%
- DTE relative to nasal solution alone ([1]; rats): 1.74-fold
- DTE relative to nasal solution alone ([1]; rats, listed as paliperidone): 1.74 fold

Compound: CC(C)C[C@H]1C(=O)N2CCC[C@H]2[C@]2(O)O[C@](NC(=O)[C@@H]3C=C4c5cccc6[nH]c(Br)c(c56)C[C@H]4N(C)C3)(C(C)C)C(=O)N12 [Bromocriptine]
- brain AUCs compared to intravenous administration of the nanoparticles (mouse, in vivo): over two-fold greater
- brain and plasma AUC values (mouse, in vivo): higher

Compound: CN(C)CCc1c[nH]c2ccc(C[C@H]3COC(=O)N3)cc12 [Zolmitriptan]
- brain concentrations 30 minutes after administration ([1]; micellar formulation i.n., rats): about fivefold higher
- brain concentrations, 30 min up to 120 min ([1]; micellar nanocarrier i.n., rats): significantly higher brain concentrations up to 120 minutes

Compound: C#CCN[C@@H]1CCc2ccccc21 [Rasagiline]
- brain uptake from gel formulations [2]: significantly higher brain uptake

Compound: O=c1[nH]cc(F)c(=O)[nH]1 [5-FU]
- CSF levels with vs without pre-administration of acetazolamide ([1]; nasal delivery, rats): significantly higher CSF levels
- increased brain uptake compared to i.v. ([1]; solution i.n., rats pre-dosed with acetazolamide): 104%

Compound: Cc1cc2c(s1)Nc1ccccc1N=C2N1CCN(C)CC1 [Olanzapine]
- diffusion through sheep nasal mucosa, ex vivo [3]: slower
- DTE ([1]; i.n. solution, rats): to 550%
- DTE ([1]; mucoadhesive nanoemulsion i.n., rats): DTE-890%
- DTE ([1]; nanomicellar carrier i.n., rats): 520.26%

Compound: NC(=O)CC[C@@H]1NC(=O)[C@H](Cc2ccccc2)NC(=O)[C@H](Cc2ccc(O)cc2)NC(=O)[C@@H](N)CSSC[C@@H](C(=O)N2CCC[C@H]2C(=O)N[C@@H](CCCN=C(N)N)C(=O)NCC(N)=O)NC(=O)[C@H](CC(N)=O)NC1=O [arginine vasopressin]
- P3 component of event-related potentials ([4]; after intranasal administration): significant increase
- plasma concentrations after intravenous administration compared to intranasal use [4]: higher
- P3 component of event-related potentials ([4]; intravenous administration, compared to placebo): did not show significant differences

Compound: L-Tyr-D Arg
- amount delivered to the olfactory bulb [5, 9]: significantly increased
- amount in the trigeminal nerve [5, 9]: decreased amount
- amount of drug absorbed into the systemic circulation [5, 9]: significantly decreased
- decrease in whole brain concentrations [5, 9]: about 50%

Compound: Cc1nc2ccc(CN(C)c3ccc(C(=O)N[C@@H](CCC(=O)O)C(=O)O)s3)cc2c(=O)[nH]1 [Raltitrexed]
- log P [6]: −0.98
- increase in the AUC after intranasal use compared to intravenous use ([1]; depending on the section of brain, rats): 54-121 fold
- DTE for Cerebrum ([1]; solution (PBS pH 8) i.n., rats): 120
- DTE for Olfactory Bulb ([1]; solution (PBS pH 8) i.n., rats): 127

Compound: CN(C)CCC=C1c2ccccc2COc2ccccc21 [Doxepin]
- duration of immobility, forced swim test [7]: no significant difference

Compound: COCCOC(=O)C1=C(C)NC(C)=C(C(=O)OC(C)C)C1c1cccc([N+](=O)[O-])c1 (stereo not drawn) [Nimodipine]
- AUC in olfactory bulb after i.n. compared with i.v. treatment ([1]; microemulsion, rats): Higher AUC
- AUC in rest of brain after i.n. compared with i.v. treatment ([1]; microemulsion, rats): lower AUC

Compound: COc1cc(/C=C/C(=O)CC(=O)/C=C/c2ccc(O)c(OC)c2)ccc1O [Curcumin]
- brain AUC compared to curcumin injection ([1]; in situ gelling microemulsion i.n.): three times

Compound: GDF-5: growth differentiation factor 5
- midbrain concentrations compared to acidic solution ([1]; rat, in vivo): Significantly higher midbrain concentrations compared to acidic solution

Compound: CNCC[C@H](Oc1cccc2ccccc12)c1cccs1 [Duloxetine]
- brain concentrations compared to intravenous administration of duloxetine solution ([1]; lipid nanocarrier i.n.): about eight times higher
- DTE ([1]; lipid nanocarrier i.n., rats): 757.14%
- DTE ([1]; lipid nanocarrier i.n., rats, listed as duloxetine): 757.14%
- DTE ([1]; solution i.n., rats): to 287.34%
- DTE ([1]; solution i.n., rats, listed as duloxetine): 287.34%

Compound: O=c1ccc2ccccc2o1 [coumarin]
- brain concentrations compared to unmodified PEG-PLA nanoparticles i.n. ([5]; wheat germ agglutinin conjugated PEG-PLA nanoparticles i.n.): two-fold increase

Compound: vasoactive intestinal peptide
- brain levels compared to solution given intranasally ([5]; in vivo): 5.6-7.7 fold
- brain levels compared to unmodified nanoparticles ([5]; in vivo): higher brain levels

Compound: NC(=O)N1c2ccccc2C=Cc2ccccc21 [Carbamazepine]
- DTE (thermoreversible gel i.n., mice): DTE - 0.98
- brain levels in the intranasal group ([1]; even at early time points, vs intravenous solution): unable to detect significantly higher brain levels
- brain AUC-to-plasma AUC ratio compared to intravenous therapy ([1]; hypromellose and Carbopol 974P gel i.n.): 4.31 times
- systemic bioavailability ([1]; intranasal formulation compared to intravenous carbamazepine solution): 100%

Compound: CCCN(CCC)CCc1cccc2c1CC(=O)N2 [Ropinirole]
- DTE ([1]; temperature sensitive in situ gel with chitosan and HPMC i.n., rats): DTE-10.4

Compound: CN(Cc1cnc2nc(N)nc(N)c2n1)c1ccc(C(=O)N[C@@H](CCC(=O)O)C(=O)O)cc1 [Methotrexate]
- reduction in brain tumor weight (brain tumor): 75%
- increase in uptake compared to i.n. without acetazolamide ([1]; mucoadhesive solution i.n., rats pre-dosed with acetazolamide): 195%
- CSF AUC after nasal administration compared to intravenous administration ([1]; rat, in vivo, iv): greater than 13 fold
- DTE ([1]; solution i.n., rats): DTE- 21.7%

Compound: NCCc1ccc(O)c(O)c1 [dopamine]
- brain concentrations compared to nerve growth factor dosed at the same concentration ([1]; intranasal): fivefold higher

Compound: hypocretin-1 (QPLPDCCRQKTCSCRLYELLHGAGNHAAGILTL; Orexin-A; UniProt O43612 34-66, looked up)
- amount delivered to the olfactory bulb ([5]; in vivo): significantly increased
- amount in the trigeminal nerve ([5]; in vivo): decreased amount
- amount of drug absorbed into the systemic circulation ([5]; in vivo): significantly decreased
- decrease in whole brain concentrations ([5]; in vivo): about 50%

Compound: Nc1c2c(nc3ccccc13)CCCC2 [Tacrine]
- direct transport efficiency (DTE) (mouse, in vivo): 207.23

Compound: Cc1nc2n(c(=O)c1CCN1CCC(c3noc4cc(F)ccc34)CC1)CCCC2 [Risperidone]
- plasma AUC after intranasal administration vs intravenous (SLNs): lower
- locomotor activity ([8]; any of the tested formulations): significantly reduced
- locomotor activity compared to nanoemulsion given intravenously ([8]; nanoemulsion and mucoadhesive nanoemulsion given intranasally): significant reduction

Compound: C[C@]12CC[C@@H]3c4ccc(O)cc4CC[C@H]3[C@@H]1CC[C@@H]2O [Estradiol]
- AUCCSF/AUCplasma ([1]; cyclodextrin formulation i.n., rats): 1.60
- AUCCSF/AUCplasma ([1]; i.v., rats): 0.61 from
